{
  "source": "patent US4758580A",
  "about": "“Inhibiting growth of tumors with certain substituted phenoxy dimethyl alkanoic acids, esters or salts” (Yamanouchi Pharmaceutical Co., Ltd., priority 1985, dated 1988)",
  "key": {"[1]": {"tested_on": "KB (nasal cavity & pharynx cancer)", "test": "In vitro cytotoxicity against human tumor cells, KB", "assay_type": "cell-based", "details": "72 h", "method": "(§1) A suspension of cells in a culture medium was transferred into wells in a microplate in an amount of 5×10^4 cells/well. Test sample diluted with a culture medium was added to the suspension in each well, and the mixture was incubated at 37° C. for 3 days in an atmosphere of air containing 5% carbon dioxide. After skimming, sticking cells were dyed which crystalviolet for 10 minutes. After washing with water, 1% sodium lauryl sulfate solution was added to each well, and the absrobancy (optical density) at […] was measured. \"% inhibition\" was calculated from the following equation. [formula]"}, "L-1210": {"tested_on": "L-1210", "test": "In vitro cytotoxicity against mouse tumor cells, L-1210", "assay_type": "cell-based", "details": "L1210, 72 h", "method": "(§2) A suspension of cells in a culture medium was transferred into wells in a microplate in an amount of 1×10^5 cells/wall. Test sample diluted with a culture medium was added to the suspension in each well, and the mixture was incubated on the medium at 37° C. for 3 days in atmosphere of air containing 5% carbon dioxide. Thereafter, the incubated cells were recovered from the microplate and the number of live cells was counted by the dye exclusion test using a 0.5% solution of trypan blue and by using a hemocytomer."}, "[2]": {"tested_on": "Meth A (methylcholanthrene-induced cancer)", "test": "In vitro cytotoxicity against mouse tumor cells, Meth A", "assay_type": "cell-based", "details": "Meth-A, 72 h", "method": "as §2"}, "Ehrlich solid tumor": {"tested_on": "Ehrlich solid tumor", "test": "Anti-tumor test against Ehrlich solid tumor", "assay_type": "in vivo, ddY/SLC mice", "method": "Ehrlich tumor cells, 2×10^6, on Day 7 after intraperitoneal transplantation to ddY/SLC mice were subcutaneously transplanted in the left abdomen of ddY/SLC mice (5 week age, male), 10 each grouped into one. The active component was intraperitoneally or orally administered in a definite dose 24 hours after the transplantation, according to the schedule shown in Table 1 (A), (B) or (C). An effect of inhibiting growth of tumor was compared, by measuring the long diameter and short diameter of the tumor on 14, 20 and 21 Days after the transplantation, calculating the tumor size (mm^2) and determining a tumor growth inhibition rate of the group administered with the active component to the control group according to the following equation:\nGrowth inhibition rate (%)=(C-T)/C×100\nT: means tumor size (mm^2) in the active component-administered group\nC: mean tumor size (mm^2) in the control group"}, "[3]": {"tested_on": "liver cancer (MH-134) cells", "test": "Inhibition of spontaneous metastasis (to the lymph node) of liver cancer (MH-134) cells in mice", "assay_type": "in vivo, C3 H/He/SLC mice", "details": "20th day", "method": "(a) Inhibition of spontaneous metastasis (to the lymph node) of liver cancer (MH-134) cells in mice\nMH-134 tumor cells, 1×10^6, on Day 7 after intraperitoneal transplantation to C3 H/He/SLC mice were transplanted to the right leg. On the 11th day after the transplantation, the right leg portion wherein the cancer cells were transplanted were cut off. The test compounds were administered orally in a definite dose 24 hours after the transplantation. In order to confirm metastasis-inhibiting effect, on 20th day of the transplantation the mice were anatomised to observe the metastasis to the lymph node in the inguinal portion. [formula] Further, the weight of the lymph node metastasis tumor in the inguinal portion of anatomised mice was measured. [formula]"}, "Bowes (melanoma)": {"tested_on": "Bowes (melanoma)", "test": "In vitro cytotoxicity against human tumor cells, Bowes", "assay_type": "cell-based", "details": "72 h", "method": "as §1"}, "MM-46 ascites tumor": {"tested_on": "MM-46 ascites tumor", "test": "Anti-tumor test against mice mammary cancer MM-46 ascites tumor", "assay_type": "in vivo, C3 H/He/CRJ mice", "method": "(§3) MM-46 tumor cells, 1×10^6, on Day 7 after intraperitoneal transplantation to C3 H/He/CRJ mice (5 week age, male) of 10 mice each being grouped in one. The active component was intraperitoneally administered in a definite dose 24 hours after the transplantation according to the schedule shown in Table 5. An effect of tumor growth inhibition was evaluated by a percentage of the median survival time of the administered group versus that of the control group, according to the following equation.\n(§4) T: median survival day of the administered group\n(§5) C: median survival day of the control group"}, "Ehrlich ascites tumor": {"tested_on": "Ehrlich ascites tumor", "test": "Anti-tumor effect against Ehrlich ascites tumor", "assay_type": "in vivo, ddY/SLC mice", "details": "25 mg/kg i.p., 1-9 Days", "method": "as §3, with “Ehlrich” for “MM-46”, “ddY/SLC mice were intraperitoneally transplanted to ddY/SLC” for “C3 H/He/CRJ”, “4.” for “5.”, “day” for “time”\nas §4, §5"}, "Ehrlich (carcinoma)": {"tested_on": "Ehrlich (carcinoma)", "test": "In vitro cytotoxicity against mouse tumor cells, Ehrlich", "assay_type": "cell-based", "details": "Ehrlich, 72 h", "method": "as §2"}, "MH 134 (liver cancer)": {"tested_on": "MH 134 (liver cancer)", "test": "In vitro cytotoxicity against mouse tumor cells, MH 134", "assay_type": "cell-based", "details": "MH 134, 72 h", "method": "as §2"}, "ACHN (kidney cancer)": {"tested_on": "ACHN (kidney cancer)", "test": "In vitro cytotoxicity against human tumor cells, ACHN", "assay_type": "cell-based", "details": "72 h", "method": "as §1"}, "[4]": {"details": "Day 14, 2.5 mg/kg i.p., Days 1, 2, 3, 5 & 6"}, "[5]": {"details": "Day 14, 12.5 mg/kg i.p., Days 1, 2, 3, 4, 6, 7, 8, 9"}, "[6]": {"details": "Day 14, 25 mg/kg i.p., Days 1, 2, 3, 4 & 7"}, "[7]": {"details": "Day 14, 25 mg/kg i.p., Days 1, 2, 3, 4, 6, 7, 8, 9"}, "[8]": {"details": "Day 21, 2.5 mg/kg i.p., Days 1, 2, 3, 5 & 6"}, "[9]": {"details": "Day 21, 12.5 mg/kg i.p., Days 1, 2, 3, 4, 6, 7, 8, 9"}, "[10]": {"details": "Day 21, 25 mg/kg i.p., Days 1, 2, 3, 4 & 7"}, "[11]": {"details": "Day 21, 25 mg/kg i.p., Days 1, 2, 3, 4, 6, 7, 8, 9"}, "[12]": {"details": "50 mg/kg oral, 1, 3, 5, 7, 9, 11, 13 and 15 days"}, "[13]": {"details": "100 mg/kg oral, 1, 3, 5, 7, 9, 11, 13 and 15 days"}, "[14]": {"details": "6.25 mg/kg i.p., 1, 2, 3, 4 and 6 Days"}, "[15]": {"details": "12.5 mg/kg i.p., 1, 2, 3, 4 and 6 Days"}, "[16]": {"details": "25 mg/kg i.p., 1, 2, 3, 4 and 6 Days"}},
  "data": [
    {"smiles": "O=c1[nH]cc(F)c(=O)[nH]1", "note": "[5-Fluorouracil, reference compound]", "values": [
      {"measurement": "IC50", "setting": "[1]", "result": 1.75, "unit": "µg/mL"},
      {"measurement": "IC50", "setting": "L-1210", "result": 0.06, "unit": "µg/mL"},
      {"measurement": "IC50", "setting": "[2]", "result": 0.1, "unit": "µg/mL"},
      {"measurement": "Growth Inhibition Rate", "setting": "Ehrlich solid tumor; [4]", "result": 42.9, "unit": "%"},
      {"measurement": "Size of Tumor", "setting": "Ehrlich solid tumor; [4]", "result": "133.7 ± 61.1", "unit": "mm^2"},
      {"measurement": "Growth Inhibition Rate", "setting": "Ehrlich solid tumor; [5]", "result": 44.1, "unit": "%"},
      {"measurement": "Size of Tumor", "setting": "Ehrlich solid tumor; [5]", "result": "142.6 ± 36.9", "unit": "mm^2"},
      {"measurement": "Growth Inhibition Rate", "setting": "Ehrlich solid tumor; [6]", "result": 40.0, "unit": "%"},
      {"measurement": "Size of Tumor", "setting": "Ehrlich solid tumor; [6]", "result": "86.7 ± 35.1", "unit": "mm^2"},
      {"measurement": "Growth Inhibition Rate", "setting": "Ehrlich solid tumor; [7]", "result": 54.4, "unit": "%"},
      {"measurement": "Size of Tumor", "setting": "Ehrlich solid tumor; [7]", "result": "116.3 ± 44.0", "unit": "mm^2"},
      {"measurement": "Growth Inhibition Rate", "setting": "Ehrlich solid tumor; [8]", "result": 42.4, "unit": "%"},
      {"measurement": "Size of Tumor", "setting": "Ehrlich solid tumor; [8]", "result": "306.8 ± 166.8", "unit": "mm^2"},
      {"measurement": "Growth Inhibition Rate", "setting": "Ehrlich solid tumor; [9]", "result": 34.2, "unit": "%"},
      {"measurement": "Size of Tumor", "setting": "Ehrlich solid tumor; [9]", "result": "280.6 ± 68.9", "unit": "mm^2"},
      {"measurement": "Growth Inhibition Rate", "setting": "Ehrlich solid tumor; [10]", "result": 57.5, "unit": "%"},
      {"measurement": "Size of Tumor", "setting": "Ehrlich solid tumor; [10]", "result": "217.8 ± 126.2", "unit": "mm^2"},
      {"measurement": "Growth Inhibition Rate", "setting": "Ehrlich solid tumor; [11]", "result": 40.8, "unit": "%"},
      {"measurement": "Size of Tumor", "setting": "Ehrlich solid tumor; [11]", "result": "252.3 ± 100.3", "unit": "mm^2"},
      {"measurement": "Growth inhibition of the metastasis tumor", "setting": "[3]; [12]", "result": 48.7, "unit": "%"},
      {"measurement": "Metastasis-inhibition rate", "setting": "[3]; [12]", "result": 17.7, "unit": "%"},
      {"measurement": "Growth inhibition of the metastasis tumor", "setting": "[3]; [13]", "result": 74.2, "unit": "%"},
      {"measurement": "Metastasis-inhibition rate", "setting": "[3]; [13]", "result": 41.2, "unit": "%"},
      {"measurement": "IC50", "setting": "Bowes (melanoma)", "result": 0.61, "unit": "µg/mL"},
      {"measurement": "Median Survival Day", "setting": "MM-46 ascites tumor; [14]", "result": 16.0, "unit": "days"},
      {"measurement": "Survivors (90 days)", "setting": "MM-46 ascites tumor; [14]", "result": "0/10"},
      {"measurement": "T/C (median survival)", "setting": "MM-46 ascites tumor; [14]", "result": 213.3, "unit": "%"},
      {"measurement": "Median Survival Day", "setting": "MM-46 ascites tumor; [15]", "result": 17.0, "unit": "days"},
      {"measurement": "Survivors (90 days)", "setting": "MM-46 ascites tumor; [15]", "result": "0/10"},
      {"measurement": "T/C (median survival)", "setting": "MM-46 ascites tumor; [15]", "result": 226.7, "unit": "%"},
      {"measurement": "Median Survival Day", "setting": "MM-46 ascites tumor; [16]", "result": 20.0, "unit": "days"},
      {"measurement": "Survivors (90 days)", "setting": "MM-46 ascites tumor; [16]", "result": "0/10"},
      {"measurement": "T/C (median survival)", "setting": "MM-46 ascites tumor; [16]", "result": 266.7, "unit": "%"},
      {"measurement": "Median Survival Day", "setting": "Ehrlich ascites tumor", "result": 24.5, "unit": "days"},
      {"measurement": "No. of 40-day Survivors", "setting": "Ehrlich ascites tumor", "result": "0/8"},
      {"measurement": "T/C (median survival)", "setting": "Ehrlich ascites tumor", "result": 163.3, "unit": "%"},
      {"measurement": "IC50", "setting": "Ehrlich (carcinoma)", "result": 0.05, "unit": "µg/mL"},
      {"measurement": "IC50", "setting": "MH 134 (liver cancer)", "result": 0.009, "unit": "µg/mL"},
      {"measurement": "IC50", "setting": "ACHN (kidney cancer)", "result": 0.1, "unit": "µg/mL"}
    ]}
  ]
}
